# Assay results published in ChEMBL document CHEMBL1201862, “PubChem BioAssay data set” (2004).
# The source made the active and inactive calls.
# Assays:
# [1] = target: T1, Short transient receptor potential channel 4 (Mus musculus, UniProt Q9QUQ5); test: block of DAMGO-driven TRPC4 calcium entry – cell-based, HEK293 TRPC4/mu-opioid, Fluo-4 calcium, dose response (AID 434942); format: functional;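 further: potency of inhibitors blocking the TRPC4 calcium response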
# T1 sequence (Q9QUQ5 whole entry): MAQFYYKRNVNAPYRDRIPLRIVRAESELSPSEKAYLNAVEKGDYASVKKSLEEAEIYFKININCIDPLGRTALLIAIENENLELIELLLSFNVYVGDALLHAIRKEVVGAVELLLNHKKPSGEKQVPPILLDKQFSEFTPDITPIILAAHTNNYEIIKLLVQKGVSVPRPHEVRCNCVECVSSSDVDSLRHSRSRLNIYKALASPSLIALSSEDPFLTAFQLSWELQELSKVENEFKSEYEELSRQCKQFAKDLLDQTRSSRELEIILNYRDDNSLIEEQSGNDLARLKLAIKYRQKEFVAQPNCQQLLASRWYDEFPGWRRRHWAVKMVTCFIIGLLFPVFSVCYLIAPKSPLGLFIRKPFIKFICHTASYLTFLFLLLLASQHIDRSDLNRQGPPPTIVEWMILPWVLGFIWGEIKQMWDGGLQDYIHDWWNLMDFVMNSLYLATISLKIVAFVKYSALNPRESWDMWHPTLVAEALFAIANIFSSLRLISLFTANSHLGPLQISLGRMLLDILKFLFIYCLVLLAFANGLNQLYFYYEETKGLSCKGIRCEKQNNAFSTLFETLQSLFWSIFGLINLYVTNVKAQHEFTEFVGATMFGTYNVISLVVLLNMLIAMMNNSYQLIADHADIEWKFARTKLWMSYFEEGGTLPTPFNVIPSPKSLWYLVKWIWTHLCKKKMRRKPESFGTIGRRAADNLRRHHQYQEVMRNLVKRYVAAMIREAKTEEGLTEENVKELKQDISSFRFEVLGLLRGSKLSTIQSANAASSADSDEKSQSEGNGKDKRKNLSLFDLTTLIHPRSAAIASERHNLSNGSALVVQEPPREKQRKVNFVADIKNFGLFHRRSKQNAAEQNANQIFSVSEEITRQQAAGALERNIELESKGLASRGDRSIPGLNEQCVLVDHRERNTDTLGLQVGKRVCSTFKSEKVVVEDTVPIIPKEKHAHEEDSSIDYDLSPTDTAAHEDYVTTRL
# [2] = A cytotoxicity screen of small molecule inhibitors of the PhoP region in Salmonella typhi identified in the primary screen. [Related pubchem assays: 1850, 1864, 1985 ]; format: functional
# [3] = target: T2, Rac GTPase-activating protein 1 (Homo sapiens, UniProt Q9H0H5); test: blockers of MgcRacGAP-driven Rac1 GTP hydrolysis – biochemical, ADP Hunter fluorescence, primary and confirmatory, confirmation (AID 624330); format: functional
# T2 sequence (Q9H0H5 whole entry): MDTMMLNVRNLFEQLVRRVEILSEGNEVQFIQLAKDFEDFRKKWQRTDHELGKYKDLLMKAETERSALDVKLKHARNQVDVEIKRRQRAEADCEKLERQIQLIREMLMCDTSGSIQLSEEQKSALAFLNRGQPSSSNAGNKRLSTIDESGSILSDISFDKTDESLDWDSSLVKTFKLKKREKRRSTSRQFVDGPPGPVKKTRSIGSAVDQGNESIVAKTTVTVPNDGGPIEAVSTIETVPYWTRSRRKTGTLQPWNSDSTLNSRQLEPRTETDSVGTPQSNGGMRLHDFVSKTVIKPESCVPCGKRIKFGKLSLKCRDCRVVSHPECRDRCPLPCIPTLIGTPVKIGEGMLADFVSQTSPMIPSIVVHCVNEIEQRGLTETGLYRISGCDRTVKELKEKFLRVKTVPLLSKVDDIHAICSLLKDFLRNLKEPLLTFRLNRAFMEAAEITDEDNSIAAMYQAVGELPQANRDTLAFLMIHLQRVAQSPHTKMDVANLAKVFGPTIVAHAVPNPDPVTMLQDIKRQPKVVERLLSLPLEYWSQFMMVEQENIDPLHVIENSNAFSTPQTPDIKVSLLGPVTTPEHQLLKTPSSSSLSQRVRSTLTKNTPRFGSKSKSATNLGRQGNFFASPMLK
# [4] = target: Induced myeloid leukemia cell differentiation protein Mcl-1 (Homo sapiens, UniProt Q07820); format: functional
# Induced myeloid leukemia cell differentiation protein Mcl-1, sequence (Q07820 whole entry): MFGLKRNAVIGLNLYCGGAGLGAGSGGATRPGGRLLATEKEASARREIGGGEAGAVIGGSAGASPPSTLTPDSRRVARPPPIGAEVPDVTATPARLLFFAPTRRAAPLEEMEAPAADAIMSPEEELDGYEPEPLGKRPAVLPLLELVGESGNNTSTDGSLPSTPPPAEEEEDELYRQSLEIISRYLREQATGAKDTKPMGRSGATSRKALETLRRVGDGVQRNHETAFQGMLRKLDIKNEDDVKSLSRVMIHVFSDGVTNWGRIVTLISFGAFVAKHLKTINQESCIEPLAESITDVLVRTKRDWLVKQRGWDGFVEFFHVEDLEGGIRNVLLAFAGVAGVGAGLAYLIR
# HEK293 [5] = test: inhibition of NOD1-driven NF-kB reporter – cell-based, luminescence, uHTS, primary screen (AID 1578); format: functional; settings: Homo sapiens
# HEK293 [6] = test: cells; format: functional, cell-based; settings: Homo sapiens
# HEK293 [7] = test: cells; format: functional, cell-based; settings: Homo sapiens; remark: listed apart in the source
# HEK293 [8] = test: NOD2 signaling inhibitors in MDP-stimulated cells, cell-based, uHTS, luminescence (AID 2001); format: functional; settings: Homo sapiens
# Tumor necrosis factor = Tumor necrosis factor (Homo sapiens, UniProt P01375); test: analog potency on TNFa NF-kB signaling – cell-based, revised, SAR follow-up (AID 2337); format: functional
# Tumor necrosis factor, sequence (P01375 whole entry, the tested form may be a part): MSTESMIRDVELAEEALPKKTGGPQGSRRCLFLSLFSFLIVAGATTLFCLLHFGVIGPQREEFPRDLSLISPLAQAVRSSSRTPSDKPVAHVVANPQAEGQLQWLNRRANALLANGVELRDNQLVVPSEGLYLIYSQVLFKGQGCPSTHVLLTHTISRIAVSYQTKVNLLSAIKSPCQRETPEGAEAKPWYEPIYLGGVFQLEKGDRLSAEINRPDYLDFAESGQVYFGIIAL
# [9] = target: T3, Nucleotide-binding oligomerization domain-containing protein 1 (Homo sapiens, UniProt Q9Y239); test: blockers of NOD1 pathway activity – revised, SAR follow-up (AID 2333); format: functional
# T3 sequence (Q9Y239 whole entry): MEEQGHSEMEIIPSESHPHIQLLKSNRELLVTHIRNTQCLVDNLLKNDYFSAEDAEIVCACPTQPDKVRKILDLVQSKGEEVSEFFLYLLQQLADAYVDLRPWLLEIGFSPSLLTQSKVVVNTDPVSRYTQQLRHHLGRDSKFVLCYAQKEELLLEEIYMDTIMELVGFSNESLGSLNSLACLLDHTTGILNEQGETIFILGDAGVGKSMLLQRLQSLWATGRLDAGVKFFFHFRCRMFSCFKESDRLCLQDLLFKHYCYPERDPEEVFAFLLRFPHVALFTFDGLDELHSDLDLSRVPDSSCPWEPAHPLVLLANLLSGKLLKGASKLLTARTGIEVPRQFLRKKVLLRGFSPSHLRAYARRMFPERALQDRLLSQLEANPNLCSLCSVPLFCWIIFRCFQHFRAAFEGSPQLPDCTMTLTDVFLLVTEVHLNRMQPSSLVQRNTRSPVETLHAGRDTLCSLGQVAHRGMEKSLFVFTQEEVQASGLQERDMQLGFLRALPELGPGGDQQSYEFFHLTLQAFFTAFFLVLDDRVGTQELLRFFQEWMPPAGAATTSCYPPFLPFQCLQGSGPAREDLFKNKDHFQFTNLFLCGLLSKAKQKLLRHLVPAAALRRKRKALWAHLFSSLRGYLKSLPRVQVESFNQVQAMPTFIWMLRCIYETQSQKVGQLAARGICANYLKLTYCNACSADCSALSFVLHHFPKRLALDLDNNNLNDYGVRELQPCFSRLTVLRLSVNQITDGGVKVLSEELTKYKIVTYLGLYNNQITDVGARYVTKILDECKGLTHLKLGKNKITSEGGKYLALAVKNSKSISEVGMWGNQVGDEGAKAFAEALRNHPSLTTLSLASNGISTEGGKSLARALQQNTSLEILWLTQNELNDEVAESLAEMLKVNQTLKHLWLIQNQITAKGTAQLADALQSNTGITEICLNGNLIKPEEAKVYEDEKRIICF
# INS1 = test: INS-1E survival protection against cytokine death – cell-based, luminescence, retest, dose response (AID 449756); format: functional; settings: Rattus norvegicus;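 further: cell death triggered by IL-1 beta plus TNF-alpha plus IFN-gamma mixture; protective hits raise ATP signal compared with cytokine alone wells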
# HEK293 [10] = test: cells; settings: Homo sapiens
# Cytochrome P450 2D6 = Cytochrome P450 2D6 (Homo sapiens, UniProt P10635);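 further: CYP2D6 member of a cytochrome P450 panel assay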
# Cytochrome P450 2D6, sequence (P10635 whole entry): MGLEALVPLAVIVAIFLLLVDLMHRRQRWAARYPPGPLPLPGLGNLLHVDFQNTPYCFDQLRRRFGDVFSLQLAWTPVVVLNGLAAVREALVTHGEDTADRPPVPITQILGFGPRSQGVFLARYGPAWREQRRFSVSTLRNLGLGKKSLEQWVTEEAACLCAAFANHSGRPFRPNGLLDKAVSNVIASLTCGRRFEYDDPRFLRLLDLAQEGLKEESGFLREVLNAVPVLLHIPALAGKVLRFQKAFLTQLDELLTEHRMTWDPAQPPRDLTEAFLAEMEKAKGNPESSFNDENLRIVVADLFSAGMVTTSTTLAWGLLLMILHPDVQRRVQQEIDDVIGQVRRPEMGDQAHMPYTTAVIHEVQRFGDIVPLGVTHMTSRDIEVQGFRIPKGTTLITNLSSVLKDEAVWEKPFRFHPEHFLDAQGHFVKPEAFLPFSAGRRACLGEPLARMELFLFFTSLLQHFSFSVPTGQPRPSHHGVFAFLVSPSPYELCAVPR
# [11] = target: DNA dC->dU-editing enzyme APOBEC-3G (Homo sapiens, UniProt Q9HC16); test: Dose Response confirmation of small molecule APOBEC3G DNA Deaminase Inhibitors via a fluorescence-based single-stranded DNA deaminase assay. [Related pubchem assays (depositor defined):AID493012, AID493028]; format: functional
# DNA dC->dU-editing enzyme APOBEC-3G, sequence (Q9HC16 whole entry): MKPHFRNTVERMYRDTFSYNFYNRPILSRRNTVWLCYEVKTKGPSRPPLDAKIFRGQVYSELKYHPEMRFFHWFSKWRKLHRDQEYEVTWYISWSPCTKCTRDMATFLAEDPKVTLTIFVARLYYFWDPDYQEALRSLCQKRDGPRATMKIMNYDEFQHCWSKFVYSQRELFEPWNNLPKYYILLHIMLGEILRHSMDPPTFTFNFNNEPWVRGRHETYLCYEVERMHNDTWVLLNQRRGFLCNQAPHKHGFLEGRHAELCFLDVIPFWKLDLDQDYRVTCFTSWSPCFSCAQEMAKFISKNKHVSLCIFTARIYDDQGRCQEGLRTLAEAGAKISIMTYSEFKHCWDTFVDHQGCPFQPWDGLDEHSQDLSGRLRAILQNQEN
# [12] = NIH-3T3 fibroblast cytotoxicity, dose response, cytotoxicity control, cell-based, fluorescence, Alamar Blue, secondary assay (AID 2327); format: functional;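 further: NIH-3T3 mouse fibroblasts cultured with fluconazole at 8 µg/mL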
# [13] = tested on: Streptococcus sp. 'group A'; test: Streptococcus pyogenes SK(-)GAS viability under kanamycin – luminescence, BacTiterGlo, confirmation, counter-screen for streptokinase expression inhibitor project, dose response (AID 1900); format: functional, organism-based
# [14] = fluconazole-exposed Candida albicans growth modulators – fluorescence, retest, confirmation (AID 2467); format: functional, cell-based
# [15] = Trypanosoma cruzi growth suppression in host cells – NIH3T3 host cells, beta-gal luminescence, confirmation (AID 2044); format: functional, cell-based;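 further: intracellular parasites grown in NIH/3T3 mouse fibroblasts as host cells; luminescent beta-galactosidase reporter signal from transgenic T. cruzi replicating inside host cells; inhibitors lower the luminescence signal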
# [16] = NIH3T3 cell viability loss – ATP luminescence, mouse fibroblasts, counter-screen, dose response (AID 2010); format: functional, cell-based;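 further: cells exposed to compound for about 90 hours before reading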
# Streptococcus = test: GAS UMAA2166 growth inhibition – luminescence, BacTiterGlo, counter-screen for streptokinase expression inhibitor project, dose response (AID 1915); format: functional, organism-based;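 further: potency for reduction of bacterial viability or growth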
# [17] = THP-1 cell cytotoxicity, dose response, cytotoxicity control for non-replicating M. tuberculosis project (AID 489025); format: functional
# [18] = target: T1, Short transient receptor potential channel 4; test: calcium entry via TRPC4 opening agents – cell-based, HEK293 TRPC4/mu-opioid, Fluo-4 calcium, dose response (AID 434937); format: functional
# cells = format: functional
# Cytochrome P450 2C19 = Cytochrome P450 2C19 (Homo sapiens, UniProt P33261); test: Cytochrome panel assay with activity outcomes. Panel member name: p450-cyp2c19 Compounds with AC50 equal or less than 10 uM are considered active; format: functional; settings: read-out: AC50
# Cytochrome P450 2C19, sequence (P33261 whole entry): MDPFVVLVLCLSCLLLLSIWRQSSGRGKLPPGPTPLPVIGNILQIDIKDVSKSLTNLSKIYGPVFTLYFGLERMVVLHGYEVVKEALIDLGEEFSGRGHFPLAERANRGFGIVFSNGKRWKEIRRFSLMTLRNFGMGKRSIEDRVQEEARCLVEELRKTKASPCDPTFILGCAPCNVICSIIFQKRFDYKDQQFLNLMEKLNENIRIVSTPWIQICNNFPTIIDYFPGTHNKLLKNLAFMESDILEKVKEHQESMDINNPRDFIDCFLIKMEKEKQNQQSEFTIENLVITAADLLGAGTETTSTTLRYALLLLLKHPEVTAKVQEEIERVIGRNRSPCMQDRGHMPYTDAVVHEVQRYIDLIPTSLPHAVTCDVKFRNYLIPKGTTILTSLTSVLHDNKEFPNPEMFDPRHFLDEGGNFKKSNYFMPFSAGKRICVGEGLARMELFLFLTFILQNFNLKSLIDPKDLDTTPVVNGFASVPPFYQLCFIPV
# Genome polyprotein = Genome polyprotein (dengue virus type 2, UniProt P29990); test: flavivirus cap methylation enzyme inhibition – biochemical, confirmation dose response, primary screen (AID 588689); format: functional
# Genome polyprotein, sequence (P29990 2492-3391 limits assumed): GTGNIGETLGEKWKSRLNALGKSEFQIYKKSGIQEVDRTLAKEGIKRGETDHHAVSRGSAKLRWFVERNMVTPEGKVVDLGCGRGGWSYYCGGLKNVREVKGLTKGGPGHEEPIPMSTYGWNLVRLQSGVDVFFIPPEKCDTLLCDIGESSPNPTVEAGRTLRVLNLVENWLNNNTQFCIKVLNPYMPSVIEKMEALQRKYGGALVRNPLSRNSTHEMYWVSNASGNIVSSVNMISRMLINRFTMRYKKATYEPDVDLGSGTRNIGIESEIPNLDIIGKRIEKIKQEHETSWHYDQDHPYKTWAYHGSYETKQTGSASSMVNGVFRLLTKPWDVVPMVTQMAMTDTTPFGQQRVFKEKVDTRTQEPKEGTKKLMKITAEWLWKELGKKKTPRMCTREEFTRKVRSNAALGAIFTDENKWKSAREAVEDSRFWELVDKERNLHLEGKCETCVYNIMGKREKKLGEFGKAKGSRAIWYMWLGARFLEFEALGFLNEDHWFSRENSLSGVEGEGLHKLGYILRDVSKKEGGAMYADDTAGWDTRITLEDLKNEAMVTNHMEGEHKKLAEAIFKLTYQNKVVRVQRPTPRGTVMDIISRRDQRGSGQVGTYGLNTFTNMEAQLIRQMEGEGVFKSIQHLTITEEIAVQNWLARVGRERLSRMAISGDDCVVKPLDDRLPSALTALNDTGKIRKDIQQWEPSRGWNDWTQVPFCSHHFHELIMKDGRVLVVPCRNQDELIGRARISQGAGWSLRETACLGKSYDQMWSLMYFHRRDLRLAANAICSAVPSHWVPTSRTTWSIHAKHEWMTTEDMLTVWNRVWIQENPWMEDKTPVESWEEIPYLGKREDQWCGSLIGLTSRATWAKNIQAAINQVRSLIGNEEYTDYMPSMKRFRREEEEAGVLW
structure (smiles),measurement,setting,value
O=C(c1cccc(C(F)(F)F)c1)C1CCCN(Cc2cccn2-c2ccccn2)C1 (stereo not drawn),EC50,[1],5.96 µM (active)
CCCCN(CCCC)CCNC(=O)CSCc1ccc(C)cc1,EC50,[2],> 50 µM (active)
same,IC50,[3],147 µM (active)
CCCCn1c(NCc2ccc(N(C)C)cc2)nc2ccccc21,IC50,[4],1.26 µM (active)
same,EC50,[1],1.5 µM (active)
CN(C)S(=O)(=O)c1cccc(CSCc2cccc(S(=O)(=O)N(C)C)c2)c1,EC50,HEK293 [5],1.3 µM (active)
same,IC50,HEK293 [6],3.06 µM (active)
same,IC50,HEK293 [7],> 20 µM (inactive)
same,IC50,HEK293 [8],5 µM (active)
same,IC50,Tumor necrosis factor,2.09 µM (active)
same,IC50,[9],2.12 µM (active)
same,AC50,INS1,3.3 µM (active)
same,IC50,HEK293 [10],> 20 µM (inactive)
NCCCCC(=O)O [5-AMINOVALERIC ACID],AC50,Cytochrome P450 2D6,inconclusive
O=C(CSc1ccccc1)Nc1nnc(COc2ccc(Cl)cc2)s1,IC50,[11],32.3 µM (active)
O=C(NC(=S)NNC(=O)[C@H]1C[C@@H]1c1ccccc1)c1cccc(F)c1,EC50,[12],> 160 µM (inactive)
same,EC50,[13],1.89 µM (active)
same,EC50,[14],1.91 µM (active)
same,EC50,[15],3.91 µM (active)
same,EC50,[16],17.6 µM (active)
same,EC50,Streptococcus,3.65 µM (active)
same,CC50,[17],> 40 µM (active)
same,EC50,[18],4.22 µM (active)
same,IC50,cells,18.8 µM (active)
CCOC(=O)CSc1nnc(NC(=O)c2cccc(S(=O)(=O)N3CCCCCC3)c2)s1,AC50,Cytochrome P450 2C19,2 µM (inconclusive)
same,AC50,Cytochrome P450 2D6,inconclusive
O=C1C(=NO)CCc2ccccc21,IC50,Genome polyprotein,88.6 µM (active)
COc1ccc(C(=O)Nc2ccc(NC(=O)c3ccco3)c(Cl)c2)cc1OC,AC50,Cytochrome P450 2D6,inconclusive
